Measurements: patent publication US20070249637A1, “Inhibitors Of Hepatitis C Virus Protease, And Compositions And Treatments Using The Same” (priority 2004, published 2007)
pEC50, pKi: −log10 of the molar value. Values joined by “and” are separate entries in the source; they are usually repeats but may differ in a detail not shown here. Equal values may be shown once. Read-outs that look alike come from different tables or passages of the source.

Legend:
[1] = rcm bond, 15-membered ring, DCM, 40.0 °C
[2] = molecular target: T1, full-length NS3-NS4A enzyme (Hepatitis C virus genotype 1a, UniProt P27958); assay: HCV protease assay (continuous FRET, full-length enzyme); assay type: biochemical; settings: 3 nM full-length NS3-NS4A, 3 uM depsipeptide FRET substrate S1; competitive inhibition fit
T1 construct: 3 nM full-length NS3-NS4A enzyme
Description: HCV protease activity and compound inhibition was monitored using a continuous, fluorescence resonance energy transfer (FRET) assay. Test compounds at various concentrations were added to assay buffer (50 mM MOPS pH 7.5, 50 mM NaCl, 20% glycerol, 0.025% Triton-X 100, 1 mM tris(2-carboxyethyl)phosphine) containing 3 uM depsipeptide FRET substrate S1 (Anaspec) (see Taliani et al. Analytical Biochemistry, 240, 60-67 (1996)) in a white, non-binding 96-well plate (Corning). The reaction was started by the addition of 3 nM full-length NS3-NS4A enzyme. The increase in fluorescence intensity following peptide cleavage was monitored using a Safire fluorescence plate reader (Tecan). The excitation and emission wavelengths were 340 nm and 500 nm, respectively. Inhibition constants (KI) were calculated by non-linear regression analysis using an equation derived for competitive inhibition.

[3] = test system: HCV dual reporter subgenomic replicon (B6b cell line); assay: HCV dual reporter subgenomic replicon assay, Renilla luciferase (antiviral activity); assay type: cell-based; settings: Hepatitis C virus, 72 h; 50% reduction of Renilla luciferase expression, 3 days incubation
Description: The compounds described herein were tested for antiviral activity utilizing a dual-reporter replicon assay as described in U.S. patent application Ser. No. 10/818,075 (the '075 application), filed Apr. 5, 2004. The disclosure of the '075 application is incorporated herein.
(§1) Cell-based antiviral activity was evaluated in the previously described HCV dual reporter subgenomic replicon system (the '075 application). With this system, the effects of a compound on both HCV replication and cell viability can be simultaneously determined by measuring the intracellular levels of two separate reporter proteins. The dicistronic selectable replicon contains the Renilla luciferase gene such that Renilla luciferase activity within stably-transfected cells serves as a marker of HCV replication. The firefly luciferase gene is stably integrated into and expressed by the Huh-7 host cells. Since firefly luciferase activity is dependent upon cellular transcription and translation, firefly luciferase activity serves as an indicator of cell viability.
(§2) The dual reporter selectable replicon cell line (B6b) was maintained in DMEM supplemented with 10% FBS, L-glutamine, non-essential amino acids, penicillin, streptomycin, and selection agents (200 ug/ml G418 and 6 ug/ml blastocidin). On the first day of the experiment, cells were trypsinized, washed, and diluted in medium lacking the selection agents. Cells were transferred to 96-well, black-walled, clear bottom plates at a density of 2×10^4 cells in 150 ul of medium per well. Cells were allowed to settle for 60 to 90 minutes while compounds were being prepared. Each compound was initially diluted to a 4× working stock (2.56% DMSO in tissue culture medium) that was then serially diluted nine times in half log increments in medium with 2.56% DMSO. Fifty microliters of each dilution were then added in triplicate to the plated cells in order to obtain final IX compound concentrations with 0.64% DMSO. Typical testing concentrations ranged from 320 uM to 10 nM. Control wells containing 0.64% DMSO without compound were also included on each plate.
(§3) After 3 days of incubation under humidity at 37° C. with 5% CO2, plates were microscopically examined for compound precipitation and cell death. Tissue culture medium was then aspirated and cells were lysed with 20 ul of 1× Passive Lysis Buffer (Promega, Madison, Wis.). Reporter activity was measured using a MicroBeta Jet 1450 (Perkin Elmer, Boston, Mass.) following sequential 50 ul additions of firefly and Renilla luciferase substrates as described in the manufacturers protocol (Promega). Luciferase activities were expressed as a percentage of the signals observed in the compound-free control wells. The amount of compound required to reduce Renilla luciferase expression by 50% is defined as the 50% effective concentration, or EC50. The amount of compound that reduces firefly luciferase expression by 50% is defined as the 50% cytotoxic concentration, or CC50. A therapeutic index (TI) is calculated by dividing the CC50 by the EC50.

in vitro = assay type: cell-based; settings: human; 50% reduction of firefly luciferase expression, 3 days incubation; read-out: Replicon CC50
Description: as §1, §2, §3

T1 sequence (P27958 1027-1657): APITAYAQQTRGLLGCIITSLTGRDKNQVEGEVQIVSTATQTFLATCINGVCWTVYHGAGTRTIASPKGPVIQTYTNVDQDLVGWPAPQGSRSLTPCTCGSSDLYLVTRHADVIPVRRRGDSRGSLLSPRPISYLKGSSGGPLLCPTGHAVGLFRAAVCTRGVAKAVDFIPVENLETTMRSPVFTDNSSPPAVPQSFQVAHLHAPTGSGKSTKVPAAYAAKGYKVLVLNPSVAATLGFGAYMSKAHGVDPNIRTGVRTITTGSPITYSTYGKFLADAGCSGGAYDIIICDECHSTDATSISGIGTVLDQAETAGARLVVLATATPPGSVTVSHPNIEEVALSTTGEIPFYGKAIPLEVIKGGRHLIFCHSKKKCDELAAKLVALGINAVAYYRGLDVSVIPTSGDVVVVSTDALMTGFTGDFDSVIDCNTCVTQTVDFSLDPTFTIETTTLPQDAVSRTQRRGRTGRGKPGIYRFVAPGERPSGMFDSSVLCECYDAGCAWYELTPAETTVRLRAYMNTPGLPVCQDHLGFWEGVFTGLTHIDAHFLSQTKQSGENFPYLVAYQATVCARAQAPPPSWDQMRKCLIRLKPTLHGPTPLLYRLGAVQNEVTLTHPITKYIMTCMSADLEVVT
T1 sequence (P27958 1658-1711): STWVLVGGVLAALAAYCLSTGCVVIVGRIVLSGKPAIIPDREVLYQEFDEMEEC

Row | Structure (SMILES) | ring closure, isolated yield ([1]; from C=CCCCCCC(NC(=O)OC(C)(C)C)C(=O)N1C[C@H](Oc2cc(-c3ccccn3)nc3ccsc23)C[C@H]1C(=O)N[C@]1(C(=O)OC)C[C@H]1C=C, Grubbs II (0.25 equiv), 2.0 mM, 4.0 h) [%] | ring closure, isolated yield ([1]; from C=CCCCCCC(NC(=O)OC(C)(C)C)C(=O)N1CC(Oc2nc(-c3cc(C)nn3C)nc3ccsc23)CC1C(=O)NC1(C(=O)OC)CC1C=C, Grubbs II (0.15 equiv), 5.0 mM, 2.0 h) [%] | pKi [2] | pEC50 [3] | CC50 at 3 days (in vitro) [nM]
1 | COC(=O)[C@@]12C[C@H]1/C=C\CCCCCC(NC(=O)OC(C)(C)C)C(=O)N1C[C@H](Oc3cc(-c4ccccn4)nc4ccsc34)C[C@H]1C(=O)N2 (some centres unmarked) | 24 | – | – | – | –
2 | COC(=O)[C@@]12C[C@H]1/C=C\CCCCC[C@H](NC(=O)OC(C)(C)C)C(=O)N1C[C@H](Oc3nc(-c4cc(C)nn4C)nc4ccsc34)C[C@H]1C(=O)N2 | – | 38 | – | – | –
3 | O=C(CC1CC1)N[C@H]1CCCCC/C=C\[C@@H]2C[C@@]2(C(=O)O)NC(=O)[C@@H]2C[C@@H](Oc3nc(-c4ccccn4)nc4ccsc34)CN2C1=O [Example 46, (2R,6S,12Z,13aS,14aR,16aS)-6-[(Cyclopropylacetyl)amino]-5,16-dioxo-2-[(2-pyridin-2-ylthieno[3,2-d]pyrimidin-4-yl)oxy]-1,2,3,6,7,8,9,10,11,13a,14,15,16,16a-tetradecahydrocyclopropa[e]pyrrolo[1,2-a][1,4]diazacyclopentadecine-14a(5H)-carboxylic acid] | – | – | 7.82 | 7.04 | > 320000
4 | Cc1cc(-c2nc(O[C@@H]3C[C@H]4C(=O)N[C@]5(C(=O)O)C[C@H]5/C=C\CCCCC[C@H](NC(=O)OC5CCCC5)C(=O)N4C3)c3sccc3n2)n(C)n1 [Example 58, (2R,6S,12Z,13aS,14aR,16aS)-6-{[(Cyclopentyloxy)carbonyl]amino}-2-{[2-(1,3-dimethyl-1H-pyrazol-5-yl)thieno[3,2-d]pyrimidin-4-yl]oxy}-5,16-dioxo-1,2,3,6,7,8,9,10,11,13a,14,15,16,16a-tetradecahydrocyclopropa[e]pyrrolo[1,2-a][1,4]diazacyclopentadecine-14a(5H)-carboxylic acid] | – | – | 8.64 | 7.21 | 216000
5 | Cc1cc(-c2nc(O[C@@H]3C[C@H]4C(=O)N[C@]5(C(=O)O)C[C@H]5/C=C\CCCCC[C@H](NC(=O)OC5CCC5)C(=O)N4C3)c3sccc3n2)n(C)n1 [Example 60, (2R,6S,12Z,13aS,14aR,16aS)-6-{[(Cyclobutyloxy)carbonyl]amino}-2-{[2-(1,3-dimethyl-1H-pyrazol-5-yl)thieno[3,2-d]pyrimidin-4-yl]oxy}-5,16-dioxo-1,2,3,6,7,8,9,10,11,13a,14,15,16,16a-tetradecahydrocyclopropa[e]pyrrolo[1,2-a][1,4]diazacyclopentadecine-14a(5H)-carboxylic acid] | – | – | 8.17 | 6.15 | 222000
6 | Cc1cc(-c2nc(O[C@@H]3C[C@H]4C(=O)N[C@]5(C(=O)O)C[C@H]5/C=C\CCCCC[C@H](NC(=O)OC(C)(C)C)C(=O)N4C3)c3sccc3n2)n(C)n1 [Example 61, (2R,6S,12Z,13aS,14aR,16aS)-6-[(Tert-butoxycarbonyl)amino]-2-{[2-(1,3-dimethyl-1H-pyrazol-5-yl)thieno[3,2-d]pyrimidin-4-yl]oxy}-5,16-dioxo-1,2,3,6,7,8,9,10,11,13a,14,15,16,16a-tetradecahydrocyclopropa[e]pyrrolo[1,2-a][1,4]diazacyclopentadecine-14a(5H)-carboxylic acid] | – | – | 7.95 | 6.06 | 244000
7 | Cc1cc(-c2nc(O[C@@H]3C[C@H]4C(=O)N[C@]5(C(=O)O)C[C@H]5/C=C\CCCCC[C@H](NC(=O)CC5CC5)C(=O)N4C3)c3sccc3n2)n(C)n1 [Example 63, (2R,6S,12Z,13aS,14aR,16aS)-6-[(cyclopropylacetyl)amino]-2-{[2-(1,3-dimethyl-1H-pyrazol-5-yl)thieno[3,2-d]pyrimidin-4-yl]oxy}-5,16-dioxo-1,2,3,6,7,8,9,10,11,13a,14,15,16,16a-tetradecahydrocyclopropa[e]pyrrolo[1,2-a][1,4]diazacyclopentadecine-14a(5H)-carboxylic acid] | – | – | 8.09 | 7.96 | > 320000
8 | Cc1cc(-c2nc(O[C@@H]3C[C@H]4C(=O)N[C@]5(C(=O)O)C[C@H]5/C=C\CCCCC[C@H](NC(=O)O[C@H]5CCOC5)C(=O)N4C3)c3sccc3n2)n(C)n1 [Example 65, (2R,6S,12Z,13aS,14aR,16aS)-2-{[2-(1,3-Dimethyl-1H-pyrazol-5-yl)thieno[3,2-d]pyrimidin-4-yl]oxy}-5,16-dioxo-6-({[(3S)-tetrahydrofuran-3-yloxy]carbonyl}amino)-1,2,3,6,7,8,9,10,11,13a,14,15,16,16a-tetradecahydrocyclopropa[e]pyrrolo[1,2-a][1,4]diazacyclopentadecine-14a(5H)-carboxylic acid] | – | – | 7.99 and 8.10 | 5.59 | > 320000
9 | CC(C)Nc1cccc(-c2nc(O[C@@H]3C[C@H]4C(=O)N[C@]5(C(=O)O)C[C@H]5/C=C\CCCCC[C@H](NC(=O)OC(C)(C)C)C(=O)N4C3)c3sccc3n2)n1 [Example 79, (2R,6S,12Z,13aS,14aR,16aS)-6-[(Tert-butoxycarbonyl)amino]-2-({2-[6-(isopropylamino)pyridin-2-yl]thieno[3,2-d]pyrimidin-4-yl}oxy)-5,16-dioxo-1,2,3,6,7,8,9,10,11,13a,14,15,16,16a-tetradecahydrocyclopropa[e]pyrrolo[1,2-a][1,4]diazacyclopentadecine-14a(5H)-carboxylic acid] | – | – | 7.95 | 6.74 | 212000
10 | Cn1ccnc1-c1cc2nccc(O[C@@H]3C[C@H]4C(=O)N[C@]5(C(=O)O)C[C@H]5/C=C\CCCCC[C@H](NC(=O)OC(C)(C)C)C(=O)N4C3)c2s1 [Example 86, (2R,6S,12Z,13aS,14aR,16aS)-6-[(tert-butoxycarbonyl)amino]-2-{[2-(1-methyl-1H-imidazol-2-yl)thieno[3,2-b]pyridin-7-yl]oxy}-5,16-dioxo-1,2,3,6,7,8,9,10,11,13a,14,15,16,16a-tetradecahydrocyclopropa[e]pyrrolo[1,2-a][1,4]diazacyclopentadecine-14a(5H)-carboxylic acid] | – | – | 7.16 | 4.82 | > 320000
11 | Cn1ccnc1-c1cc2nccc(O[C@@H]3C[C@H]4C(=O)N[C@]5(C(=O)O)C[C@H]5/C=C\CCCCC[C@H](NC(=O)OC5CCCC5)C(=O)N4C3)c2s1 [Example 89, (2R,6S,12Z,13aS,14aR,16aS)-6-{[(Cyclopentyloxy)carbonyl]amino}-2-{[2-(1-methyl-1H-imidazol-2-yl)thieno[3,2-b]pyridin-7-yl]oxy}-5,16-dioxo-1,2,3,6,7,8,9,10,11,13a,14,15,16,16a-tetradecahydrocyclopropa[e]pyrrolo[1,2-a][1,4]diazacyclopentadecine-14a(5H)-carboxylic acid] | – | – | 7.85 and 7.89 | 6.30 | > 320000
12 | Cn1ccnc1-c1cc2nccc(O[C@@H]3C[C@H]4C(=O)N[C@]5(C(=O)O)C[C@H]5/C=C\CCCCC[C@H](NC(=O)CC5CC5)C(=O)N4C3)c2s1 [Example 91, (2R,6S,12Z,13aS,14aR,16aS)-6-[(Cyclopropylacetyl)amino]-2-{[2-(1-methyl-1H-imidazol-2-yl)thieno[3,2-b]pyridin-7-yl]oxy}-5,16-dioxo-1,2,3,6,7,8,9,10,11,13a,14,15,16,16a-tetradecahydrocyclopropa[e]pyrrolo[1,2-a][1,4]diazacyclopentadecine-14a(5H)-carboxylic acid] | – | – | 7.04 and 7.15 | 6.54 | > 320000
